# Data reported in US20230227838A1, “ENHANCED CELL SURVIVAL AGAINST BIOTIC AND ABIOTIC STRESSES THROUGH SALICYLICK ACID-INDUCED NPR1 CONDENSATES” (priority 2020, published 2023).
# Positions count from the first letter of the chain named. “Also recorded” adds a separate entry of the source.
# B1: sim3: SUMOylation-deficient mutant of NPR1 (protein)
# chain: MDTTIDGFADSYEISSTSFVATDNTDSSIVYLAAEQVLTGPDVSALQLLSNSFESVFDSPDDFYSDAKLVLSDGREVSFHRCVLSARSSFFKSALAAAKKEKDSNNTAAVKLELKEIAKDYEVGFDSVVTVLAYVYSSRVRPPPKGVSECADENCCHVACRPAVDFMLEVLYLAFIFKIPELITLYQRHLLDVVDKVVIEDTLVILKLANICGKACMKLLDRCKEIIVKSNVDMVSLEKSLPEELVKEIIDRRKELGLEVPKVKKHVSNVHKALDSDDIELVKLLLKEDHTNLDDACALHFAVAYCNVKTATDLLKLDLADVNHRNPRGYTVLHVAAMRKEPQLAASALEKGASASEATLEGRTALMIAKQATMAVECNNIPEQCKHSLKGRLCVEILEQEDKREQIPRDVPPSFAVAADELKMTLLDLENRVALAQRLFPTEAQAAMEIAEMKGTCEFIVTSLEPDRLTGTKRTSPGVKIAPFRILEEHQSRLKALSKTVELGKRFFPRCSAVLDQIMNCEDLTQLACGEDDTAEKRLQKKQRYMEIQETLKKAFSEDNLELGNSSLTDSTSSTSKSTGGKRSNRKLSHRRR
# modifications: left off: small tags and cut ends
# notes: SUMOylation-deficient mutant of NPR1
# B2: S55/59D: phosphomimic mutant of NPR1 at S55/59 (protein)
# chain: B1 chain with S55D, S59D, A345I, A346L, A348L
# modifications: left off: small tags and cut ends
# Experiments:
# [1] = system: cytoplasmic condensates (SINCs); experiment: Confocal imaging of localization and condensate (body) formation of GFP-fused NPR proteins and variants; type: cell-based, Nicotiana benthamiana; conditions: for SA-induced cytoplasmic body/condensate (SINC) formation: 5 mM SA for 2 hr
# Procedure, shortened: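 GFP fusions transiently expressed in N. benthamiana by Agrobacterium infiltration (OD600 1). For NPR1-GFP, 4-day Arabidopsis seedlings were vacuum-infiltrated and, at 48 hpi, soaked 2 h in water or SA. Airyscan confocal, 40× water objective, GFP ex 488 nm/em 505-530 nm; condensate number, size and intensity scored by automated thresholding.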
# [2] = system: CUL3; experiment: Co-IP of Myc-CUL3 with HA-fused NPR1 or variants; type: binding, Arabidopsis thaliana; conditions: for CUL3 pull-down signal in co-IP: 1 mM SA for 5 hr
# [3] = 5 mM SA, single-cell imaging for 2 hr starting 40 min after induction
Molecule,SA-induced cytoplasmic body/condensate (SINC) formation [1],"number of bodies, time-lapse [1, 3]","total fluorescence from each body, time-lapse [1, 3]",CUL3 pull-down signal in co-IP [2],"NPR1-CUL3 and sim3-CUL3 interaction under dose response to SA ([2]; 0-1 mM SA, 5 hr)",condensate formation at lower SA concentration ([1]; 1 mM SA for 5 hr)
"NPR1: wild-type Arabidopsis thaliana NPR1 protein, positive regulator of systemic acquired resistance",significant SA-inducible cytoplasmic body formation,started to decrease after 50 min,gradual increase in the signal intensity over time,weak pull-down signal of CUL3,,
"O=C(O)c1ccccc1O [SA, salicylic acid]",,,,,increase in the interaction,
B1,,,,significantly stronger CUL3 pull-down signals,,could form condensates at a lower concentration of SA
B2,inability to form SINCs; also recorded: fail to form cytoplasmic condensates,,,very little signal,,
